Experimental data published in patent US11066392B2, “Inhibitors of indoleamine 2,3-dioxygenase and methods of their use” (BRISTOL-MYERS SQUIBB COMPANY, priority 2017, dated 2021).
Like-named read-outs stand apart in the source and are kept apart here.

Target: indoleamine 2,3-dioxygenase (IDO) (Homo sapiens, UniProt P14902)
Assay: HeLa cell-based indoleamine 2,3-dioxygenase (IDO) assay (kynurenine production, IFNγ-stimulated)
Conditions: HeLa cells
Procedure: Assessment of inhibitor activity in HeLa cell-based indoleamine 2,3-dioxygenase (IDO) assay. HeLa (ATCC® CCL-2) cells were obtained from the ATCC® and cultured in Dulbecco's Modified Eagle Medium supplemented with 4.5 g/L glucose, 4.5 […] sodium pyruvate (#10-013-CV, Corning), 2 mM L-alanyl-L-glutamine dipeptide (#35050-061, Gibco), 100U/mL penicillin, 100 μg/mL streptomycin (#SV30010, HyClone) and 10% fetal bovine serum (#SH30071.03 HyClone). Cells were maintained in a humidified incubator at 37° C. in 5% CO2. […] After 24 hours, the media was aspirated and replaced with media containing IFNγ (#285-IF/CF, R&D Systems) at a final concentration of 25 ng/mL. A serial dilution of each test compound was added to the cells in a total volume of 200 μL of culture medium. After a further 48 hour incubation, 170 μL of supernatant was transferred from each well to a fresh 96-well plate. 12.1 μL of 6.1N trichloroacetic acid (#T0699, Sigma-Aldrich) was added to each well and mixed, followed by incubation at 65° C. for 20 minutes to hydrolyze N-formylkynurenine, the product of indoleamine 2,3-dioxygenase, to kynurenine. The reaction mixture was then centrifuged for 10 mins at 500×g to sediment the precipitate. 100 μL of the supernatant was transferred from each well to a fresh 96-well plate. 100 μl of 2% (w/v) p-dimethylaminobenzaldehyde (#15647-7, Sigma-Aldrich) in acetic acid (#A6283, Sigma-Aldrich) was added to each well mixed and incubated at room temperature for 20 mins. Kynurenine concentrations were determined by measuring absorbance at 480 nm and calibrating against an L-kynurenine (#K8625, Sigma-Aldrich) standard curve using a SPECTRAMAX® M2e microplate reader (Molecular Devices). The percentage activity at each inhibitor concentration was determined and IC50 values assessed using nonlinear regression. Activity for compounds described herein is provided in Table 1, wherein potency levels are provided as follows: (Potency: IDO IC50: […])

[1] = IFNγ 25 ng/mL, 48 hour incubation, read-out: IDO Hela IC50
[2] = potency class, read-out: Patent Potency Hela IC50 A < 10 nM, B > 10 nM, C > 100 nM

Sequence of indoleamine 2,3-dioxygenase (IDO) (P14902 whole entry): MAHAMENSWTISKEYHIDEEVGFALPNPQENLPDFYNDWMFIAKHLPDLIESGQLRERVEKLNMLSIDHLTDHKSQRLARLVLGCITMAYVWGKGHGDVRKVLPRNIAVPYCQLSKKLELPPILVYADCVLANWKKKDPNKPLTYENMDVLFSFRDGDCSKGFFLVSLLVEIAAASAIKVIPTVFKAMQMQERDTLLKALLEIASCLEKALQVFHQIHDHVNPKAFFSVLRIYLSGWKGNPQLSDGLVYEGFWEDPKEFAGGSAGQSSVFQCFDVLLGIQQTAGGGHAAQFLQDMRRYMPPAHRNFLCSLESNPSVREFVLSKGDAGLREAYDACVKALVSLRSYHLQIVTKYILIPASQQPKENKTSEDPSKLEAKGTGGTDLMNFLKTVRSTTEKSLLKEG

Row | IC50 [1] | IC50 [2] | SMILES
1 | 10 nM |  | CC[C@@H](NC(=O)c1ccc(OC)nc1)[C@H]1CC[C@@H](c2ccnc3ncccc32)CC1 (single isomer, unassigned) [Example 53a, N-(1-(4-(1,8-naphthyridin-4-yl)cyclohexyl)propyl)-6-methoxynicotinamide]
2 | 680 nM |  | CC[C@@H](NC(=O)c1ccc(OC)nc1)[C@H]1CC[C@@H](c2ccnc3ncccc32)CC1 (single isomer, unassigned) [Example 53b, N-(1-(4-(1,8-naphthyridin-4-yl)cyclohexyl)propyl)-6-methoxynicotinamide]
3 |  | > 100 nM | CC[C@@H](NC(=O)c1ccc(OC)nc1)[C@H]1CC[C@@H](c2ccnc3ncccc32)CC1 (single isomer, unassigned) [Example 53c, N-(1-(4-(1,8-naphthyridin-4-yl)cyclohexyl)propyl)-6-methoxynicotinamide]
4 | 120 nM |  | CC[C@@H](NC(=O)c1ccc(OC)nc1)[C@H]1CC[C@@H](c2ccnc(F)c2C)CC1 (single isomer, unassigned) [Example 56b, N-(1-(4-(2-fluoro-3-methylpyridin-4-yl)cyclohexyl)propyl)-6-methoxynicotinamide]
5 | 600 nM |  | CC[C@@H](NC(=O)c1ccc(OC)nc1)[C@H]1CC[C@@H](c2ccnc(F)c2C)CC1 (single isomer, unassigned) [Example 56c, N-(1-(4-(2-fluoro-3-methylpyridin-4-yl)cyclohexyl)propyl)-6-methoxynicotinamide]
6 | 830 nM |  | CCC(NC(=O)c1ccc(OC)nc1)C1CCC(c2ccnc3c(F)cc(F)cc23)CC1 (single isomer, unassigned) [Example 57a]
7 |  | < 10 nM | CCC(NC(=O)c1ccc(OC)nc1)C1CCC(c2ccnc3c(F)cc(F)cc23)CC1 (single isomer, unassigned) [Example 57b]
8 | 130 nM |  | CCC(NC(=O)c1ccc(OC)nc1)C1CCC(c2ccnc3c(F)cc(F)cc23)CC1 (single isomer, unassigned) [Example 57c]
9 | 40 nM |  | CCC(NC(=O)c1ccc(OC)nc1)C1CCC(c2ccnc3c(F)cc(F)cc23)CC1 (single isomer, unassigned) [Example 57d]
10 | 310 nM |  | CCC(NC(=O)c1cnc(OC)nc1)C1CCC(c2ccnc3c(F)cc(F)cc23)CC1 (single isomer, unassigned) [Example 58a]
11 | 500 nM |  | CCC(NC(=O)c1cnc(OC)nc1)C1CCC(c2ccnc3c(F)cc(F)cc23)CC1 (single isomer, unassigned) [Example 58b]
12 | 360 nM |  | CCC(NC(=O)c1cnc(OC)nc1)C1CCC(c2ccnc3c(F)cc(F)cc23)CC1 (single isomer, unassigned) [Example 58c]

The next lines start with the compound.

Row | SMILES | IC50 [1] | IC50 [2]
13 | CCC(NC(=O)c1ccc(OC)nc1)C1CCC(c2cccc(C)n2)CC1 (single isomer, unassigned) [Example 46a, 6-methoxy-N-(1-(4-(6-methylpyridin-2-yl)cyclohexyl)propyl)nicotinamide] | 330 nM | 
14 | CCC(NC(=O)c1ccc(OC)nc1)C1CCC(c2cccc(C)n2)CC1 (single isomer, unassigned) [Example 46b, 6-methoxy-N-(1-(4-(6-methylpyridin-2-yl)cyclohexyl)propyl)nicotinamide] |  | > 100 nM
15 | CCC(NC(=O)c1ccc(OC)nc1)C1CCC(c2cccc(C)n2)CC1 (single isomer, unassigned) [Example 46c, 6-methoxy-N-(1-(4-(6-methylpyridin-2-yl)cyclohexyl)propyl)nicotinamide] |  | > 100 nM
16 | CCC(NC(=O)c1ccc(OC)nc1)C1CCC(c2cccc(C(F)(F)F)n2)CC1 (single isomer, unassigned) [Example 47a, 6-methoxy-N-(1-(4-(6-(trifluoromethyl)pyridin-2-yl)cyclohexyl)propyl)nicotinamide] | 180 nM | 
17 | CCC(NC(=O)c1ccc(OC)nc1)C1CCC(c2cccc(C(F)(F)F)n2)CC1 (single isomer, unassigned) [Example 47b, 6-methoxy-N-(1-(4-(6-(trifluoromethyl)pyridin-2-yl)cyclohexyl)propyl)nicotinamide] |  | > 100 nM
18 | CCC(NC(=O)c1ccc(OC)nc1)C1CCC(c2cccc(C(F)(F)F)n2)CC1 (single isomer, unassigned) [Example 47c, 6-methoxy-N-(1-(4-(6-(trifluoromethyl)pyridin-2-yl)cyclohexyl)propyl)nicotinamide] |  | > 100 nM
19 | CCC(NC(=O)c1ccc(OC)nc1)C1CCC(c2cccc(C(F)(F)F)n2)CC1 (single isomer, unassigned) [Example 47d, 6-methoxy-N-(1-(4-(6-(trifluoromethyl)pyridin-2-yl)cyclohexyl)propyl)nicotinamide] | 290 nM | 
20 | CCC(NC(=O)c1ccc(OC)nc1)C1CCC(c2cccc(OC(F)F)n2)CC1 (single isomer, unassigned) [Example 48a, N-(1-(4-(6-(difluoromethoxy)pyridin-2-yl)cyclohexyl)propyl)-6-methoxynicotinamide] | 360 nM | 
21 | CCC(NC(=O)c1ccc(OC)nc1)C1CCC(c2cccc(OC(F)F)n2)CC1 (single isomer, unassigned) [Example 48b, N-(1-(4-(6-(difluoromethoxy)pyridin-2-yl)cyclohexyl)propyl)-6-methoxynicotinamide] |  | > 100 nM
22 | CCC(NC(=O)c1ccc(OC)nc1)C1CCC(c2cccc(OC(F)F)n2)CC1 (single isomer, unassigned) [Example 48c, N-(1-(4-(6-(difluoromethoxy)pyridin-2-yl)cyclohexyl)propyl)-6-methoxynicotinamide] | 270 nM | 
23 | CCC(NC(=O)c1ccc(OC)nc1)C1CCC(c2cccc(OC(F)F)n2)CC1 (single isomer, unassigned) [Example 48d, N-(1-(4-(6-(difluoromethoxy)pyridin-2-yl)cyclohexyl)propyl)-6-methoxynicotinamide] |  | > 100 nM
24 | CCC(NC(=O)c1ccc(OC)nc1)[C@H]1CC[C@@H](c2nccc(C)n2)CC1 (single isomer, unassigned) [Example 49a, (±)-6-methoxy-N-(1-(4-(4-methylpyrimidin-2-yl)cyclohexyl)propyl)nicotinamide] | 70 nM | 
25 | CCC(NC(=O)c1ccc(OC)nc1)[C@H]1CC[C@@H](c2nccc(C)n2)CC1 (single isomer, unassigned) [Example 49b, (±)-6-methoxy-N-(1-(4-(4-methylpyrimidin-2-yl)cyclohexyl)propyl)nicotinamide] | 30 nM | 
26 | CC[C@H](NC(=O)c1ccc(OC)nc1)[C@H]1CC[C@@H](c2cncc(OC)c2)CC1 (single isomer, unassigned) [Example 50a, 6-methoxy-N-(1-(4-(5-methoxypyridin-3-yl)cyclohexyl)propyl)nicotinamide] | 990 nM | 
27 | CC[C@H](NC(=O)c1ccc(OC)nc1)[C@H]1CC[C@@H](c2cncc(OC)c2)CC1 (single isomer, unassigned) [Example 50b, 6-methoxy-N-(1-(4-(5-methoxypyridin-3-yl)cyclohexyl)propyl)nicotinamide] | 250 nM | 
28 | CC[C@H](NC(=O)c1ccc(OC)nc1)[C@H]1CC[C@@H](c2cncc(OC)c2)CC1 (single isomer, unassigned) [Example 50d, 6-methoxy-N-(1-(4-(5-methoxypyridin-3-yl)cyclohexyl)propyl)nicotinamide] | 220 nM | 
29 | COC[C@H](NC(=O)c1ccc(OC)nc1)[C@H]1CC[C@@H](c2ccnc(OC)c2C(F)F)CC1 (single isomer, unassigned) [Example 51a, N-(1-(4-(3-(difluoromethyl)-2-methoxypyridin-4-yl)cyclohexyl)-2-methoxyethyl)-6-methoxynicotinamide] |  | < 10 nM
30 | COC[C@H](NC(=O)c1ccc(OC)nc1)[C@H]1CC[C@@H](c2ccnc(OC)c2C(F)F)CC1 (single isomer, unassigned) [Example 51b, N-(1-(4-(3-(difluoromethyl)-2-methoxypyridin-4-yl)cyclohexyl)-2-methoxyethyl)-6-methoxynicotinamide] | 390 nM | 
31 | COC[C@H](NC(=O)c1ccc(OC)nc1)[C@H]1CC[C@@H](c2ccnc(OC)c2C(F)F)CC1 (single isomer, unassigned) [Example 51c, N-(1-(4-(3-(difluoromethyl)-2-methoxypyridin-4-yl)cyclohexyl)-2-methoxyethyl)-6-methoxynicotinamide] | 220 nM | 
32 | COC[C@H](NC(=O)c1ccc(OC)nc1)[C@H]1CC[C@@H](c2ccnc(OC)c2C(F)F)CC1 (single isomer, unassigned) [Example 51d, N-(1-(4-(3-(difluoromethyl)-2-methoxypyridin-4-yl)cyclohexyl)-2-methoxyethyl)-6-methoxynicotinamide] | 100 nM | 
